Assay results reported in paper PMC6534110, “Enzyme characterization and biological activities of a resuscitation promoting factor from an oil degrading bacterium Rhodococcus erythropolis KB1” (PeerJ, 2019).

Target: T1, Rpf-1 (Rhodococcus erythropolis, UniProt C0ZMT9)
T1 construct: N-terminal Trx-His-S tag of pET-32a(+) kept (37 kDa on SDS-PAGE); forward primer encodes MSGRHR, reverse primer encodes C-terminal AKTFLK; conserved Cys50, Glu51, Cys114
Test: fluorogenic hydrolysis, 4-methylumbelliferone release ([…] nm)
Type: biochemical
Conditions: 22 μM printed, McIlvaine phosphate-citrate buffer pH 5.2, 37 °C, 30 min

T1 sequence (C0ZMT9 entry or part of it): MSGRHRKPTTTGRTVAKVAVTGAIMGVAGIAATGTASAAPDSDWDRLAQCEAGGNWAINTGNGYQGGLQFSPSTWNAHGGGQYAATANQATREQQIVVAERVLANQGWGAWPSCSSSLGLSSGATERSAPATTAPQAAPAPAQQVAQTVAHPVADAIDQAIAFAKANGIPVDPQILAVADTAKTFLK

With `CC(=O)N[C@H]1[C@H](Oc2ccc3c(C)cc(=O)oc3c2)O[C@H](CO)[C@@H](O[C@@H]2O[C@H](CO)[C@@H](O[C@@H]3O[C@H](CO)[C@@H](O)[C@H](O)[C@H]3NC(C)=O)[C@H](O)[C@H]2NC(C)=O)[C@@H]1O` [4-methylumbelliferyl-β-D-N,N′,N″-triacetylchitotrioside] the “fluorogenic hydrolysis, 4-methylumbelliferone release (360/455 nm)” value was “The recombinant Rpf-1 showed muralytic activity when determined with the artificial lysozyme substrate”.
